Laboratory results reported in patent US6440680B1, “Methods of identifying modulators of prostaglandin receptor EP1” (Merck Frosst Canada, Inc., priority 1993, dated 2002).
Each block holds one compound with its values, some of them ahead of it.

Legend:
EP1 receptor [1] = biological target: T1, EP1 receptor (Homo sapiens, UniProt P34995, A71T/L230H); assay: [3H]PGE2 binding assay with membranes of pcDNA-EP1-transfected COS-M6 cells; parameters: expressed in transfected cells; host or cells: COS-M6 cells (membrane fraction); settings: for rank order of potency for competition for [3H]PGE2 specific binding: FIG. 3A, 0.03 nM-10 μM competitor; for IC50: 0.5 nM [3H]PGE2, FIG. 3B, read-out: IC50 for competition for [3H]PGE2 specific binding
T1 sequence (P34995 1-402 A71T/L230H): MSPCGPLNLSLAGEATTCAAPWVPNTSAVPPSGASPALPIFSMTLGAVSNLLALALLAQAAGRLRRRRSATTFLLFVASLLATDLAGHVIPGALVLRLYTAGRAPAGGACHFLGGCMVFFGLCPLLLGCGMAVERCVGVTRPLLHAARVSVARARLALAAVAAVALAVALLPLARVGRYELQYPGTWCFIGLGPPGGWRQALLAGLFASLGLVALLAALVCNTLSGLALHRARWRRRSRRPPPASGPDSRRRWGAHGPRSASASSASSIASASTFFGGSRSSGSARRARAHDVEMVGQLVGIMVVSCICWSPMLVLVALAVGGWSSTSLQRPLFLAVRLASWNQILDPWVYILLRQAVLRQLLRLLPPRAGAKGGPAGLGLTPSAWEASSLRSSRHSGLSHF
Description: FIGS. 3A-3B—Competition for [^3H]PGE2 binding to pcDNA-EP1-transfected COS-M6 membranes: [^3H]PGE2 binding assays were performed as described in the Methods in the presence of Panel A: 0.03 nM-10 μM PGE2 (Δ), PGE1 (▪), PGF2α (□), PGD2 (●), Panel B: 3 nM-100 μM AH6809 (◯), SC19220 (Δ), and Butaprost (⋄). Butaprost and AH 6809 were generous gifts from Miles Inc. and Glaxo Group Research Ltd.
The pcDNA-EP1 plasmid was transfected into COS-M6 Cells using the DEAE-dextran method. The cells were maintained in culture for 72 h, then harvested and membranes prepared by differential centrifugation (1000×g or 10 min, then 100,000×g for 30 min) following lysis of the cells by nitrogen cavitation (Frey, et al., 1993). [3H]Prostaglandin E2 ([^3H]PGE2) binding assays were performed in 10 mM potassium phosphate (pH 6.0), containing 1 mM EDTA, 0.5 nM [^3H]PGE2 (154 Ci/mmol; DuPont-New England Nuclear) and 60-100 μg of protein from the 100,000×g membrane fraction. Incubations were conducted for 1 h at room temperature prior to separation of the bound and free radioligand by rapid filtration as previously described (Frey et al., 1993 Eur. J. Mol. Pharmacol., 244, pp 239-250). Residual [3H]PGE2 bound to the filter was quantitated by liquid scintillation counting. Specific binding was defined as the difference between total binding and non-specific binding, determined in the presence of 1 μM PGE2.

EP1 receptor [2] = biological target: T1, EP1 receptor; assay: Aequorin luminescence assay in pcDNA-EP1-injected Xenopus oocytes; type: cell-based; settings: for agonist potency from dose-response of aequorin light emission: aequorin-loaded oocytes, FIG. 4E
Description: (§1) FIG. 4A-E—Expression of prostaglandin E2 receptor in Xenopus oocytes. Panel A: An inward Ca^2—dependent Cl^− current (shown as downward deflection) evoked by bath perfusion of 1 μM PGE2. The oocyte was injected with 5 ng of pcDNA-EP1 (Bam) and voltage-clamped at −60 mV. Panel B-D: PGE2-induced light responses in aequorin loaded oocytes. The intensity of aequorin light emission is expressed in relative units and the background emission typically was 0.5-0.7 units units. The PGE2 was injected into the recording cuvette at 10 s at a final concentration indicated on each trace Panel E; Light responses were evoked by different concentrations of PGE2 and PGF2α. Each bar represents the mean±s.e.m. of data from 10 to 15 oocytes from 4 donors. Data are expressed as the percentage of the response observed with 1 μM of PGE2.
Oocytes were taken from adult females of Xenopus laevis using standard surgical procedure (Colman, A., 1984 In: Transcription and Translation—A Practical Approach, IRL Press). To remove follicle cells, oocytes were treated for 2-3 h with freshly made collagenase (2 mg/ml, type 2, Worthington Biochemical Corp., Freehold, N.J.) in Ca^2+-free ND96 solution (ND96 in mM: NaCl 96, KCl 2, MgCl2 1, HEPES 5, Na-pyruvate 2.5, theophylline 0.5, gentamicin […], +1.8 CaCl2, pH 7.6). […] Functional activity was determined by measurement of either agonist-induced Ca^2+-dependent Cl^− current or light emission in oocytes injected with the Ca^2+-specific photoprotein aequorin (J. Blinks, Friday Harbor Photoproteins, Washington), (Giladi and Spindel 1991 Biotechniques, 10, pp 744-747). […] Ligand-containing solution was perfused and the current response was recorded. For the luminometric assay, aequorin-loaded oocytes (100 ng/ooctye) were placed individually in cuvettes containing 0.4 ml ND96 and the light emission provoked by ligand addition was recorded using a Bio-Orbit 1251 luminometer (Fisher Sci. Ltd.).
Functional activity was determined in pcDNA-EP1-injected oocytes using electrophysiological and aequorin luminescence assays. […]

EP1 receptor [3] = biological target: T1, EP1 receptor; assay: Electrophysiological assay (Ca2+-dependent Cl- current) in pcDNA-EP1-injected Xenopus oocytes; type: cell-based; settings: bath perfusion of 1 μM PGE2, voltage clamped at -60 mV
Description: as §1
Oocytes were taken from adult females of Xenopus laevis using standard surgical procedure (Colman, A., 1984 In: Transcription and Translation—A Practical Approach, IRL Press). […] Functional activity was determined by measurement of either agonist-induced Ca^2+-dependent Cl^− current or light emission in oocytes injected with the Ca^2+-specific photoprotein aequorin (J. Blinks, Friday Harbor Photoproteins, Washington), (Giladi and Spindel 1991 Biotechniques, 10, pp 744-747). […] Ligand-containing solution was perfused and the current response was recorded. […]

thromboxane receptor = biological target: T2, thromboxane receptor (Homo sapiens, UniProt P21731); assay: Binding of SQ-29548 in human embryonic kidney 293 cells and membranes transfected with thromboxane-receptor cDNA
T2 construct: use of Vent polymerase (New England Biolabs) enabled amplification of the complete cDNA; expressed in transfected cells; host or cells: human embryonic kidney 293 cells and membranes
T2 sequence (P21731 1-343): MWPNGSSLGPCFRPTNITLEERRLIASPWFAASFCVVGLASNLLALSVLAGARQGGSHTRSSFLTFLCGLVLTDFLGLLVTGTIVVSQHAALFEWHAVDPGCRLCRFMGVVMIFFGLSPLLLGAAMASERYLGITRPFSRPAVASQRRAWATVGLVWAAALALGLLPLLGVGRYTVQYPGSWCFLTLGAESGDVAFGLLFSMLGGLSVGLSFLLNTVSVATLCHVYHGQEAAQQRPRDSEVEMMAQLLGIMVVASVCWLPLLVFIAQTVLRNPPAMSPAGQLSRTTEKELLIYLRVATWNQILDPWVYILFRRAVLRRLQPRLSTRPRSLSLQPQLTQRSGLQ
Description: The thromboxane receptor has been expressed in Xenopus oocytes. It can couple with endogenous signal transduction components to elicit a calcium-activated Cl^− current recorded by electrophysiological measurement using the procedure described by Hirata, M. et al., (1991), Nature, 349, pp. 617. Binding studies have been performed with COS-1 cell membranes transfected by thromboxane receptor cDNA using the ligand S-145 (Hirata, M. et al., (1991), Nature, 349, pp. 617). […] This level of expression is at least 5-10 times higher than in platelet membranes. On a per-cell basis assuming a 10% transfection efficiency, we estimate ≈10^6 binding sites/tranfected cell as compared to ≈1300 sites present on a platelet (Hourani, S. M. O. et al., (1991), Pharmacol. Rev., 43, pp. 243).

rank order of potency for competition for [3H]PGE2 specific binding (EP1 receptor [1]): PGE2>PGE1>PGF2α>>PGD2
SMILES: CCCCC[C@H](O)/C=C/[C@H]1C(=O)C[C@H](O)[C@@H]1C/C=C\CCCC(=O)O [PGD2]

SMILES: CCCCC[C@H](O)/C=C/[C@H]1[C@H](O)CC(=O)[C@@H]1C/C=C\CCCC(=O)O [PGE2]
agonist potency from dose-response of aequorin light emission (EP1 receptor [2]): more potent agonist of the expressed receptor when compared to PGF2α
intracellular calcium in pcDNA-EP1 injected oocytes (EP1 receptor [2]; oocytes challenged with PGE2): dose-dependent increase in intracellular calcium
Ca2+-dependent Cl- current response (EP1 receptor [3]): prominent current responses
rank order of potency for competition for [3H]PGE2 specific binding (EP1 receptor [1]): PGE2>PGE1>PGF2α>>PGD2

IC50 (EP1 receptor [1]): ~6.7 µM
SMILES: CC(=O)NNC(=O)N1Cc2ccccc2Oc2ccc(Cl)cc21 [SC 19220]

SMILES: CCCCC[C@H](O)/C=C/[C@H]1[C@H](O)CC(=O)[C@@H]1C/C=C\CCCC(=O)O [[^3H]PGE2, [3H]Prostaglandin E2]
maximum number of specific binding sites (Bmax) (EP1 receptor [1]; Scatchard analysis, pcDNA-EP1 transfected COS-M6 cell membranes): approximately 360 fmol/mg of protein
Kd (EP1 receptor [1]; Scatchard analysis, pcDNA-EP1 transfected COS-M6 cell membranes, read-out: equilibrium dissociation constant (KD)): 0.001 µM

rank order of potency for competition for [3H]PGE2 specific binding (EP1 receptor [1]): PGE2>PGE1>PGF2α>>PGD2
SMILES: CCCCC[C@H](O)/C=C/[C@@H]1[C@@H](C/C=C\CCCC(=O)O)[C@@H](O)C[C@H]1O [PGF2α]
agonist potency from dose-response of aequorin light emission (EP1 receptor [2]): PGE2 was more potent agonist of the expressed receptor when compared to PGF2α

IC50 (EP1 receptor [1]): 50 µM
activity at the [3H]PGE2 specific binding sites (EP1 receptor [1]; FIG. 3B): relatively inactive
SMILES: CCCC1([C@H](O)C/C=C/[C@H]2[C@H](O)CC(=O)[C@@H]2CCCCCCC(=O)OC)CCC1 [butaprost]

IC50 (EP1 receptor [1]): ~0.5 µM
SMILES: CC(C)Oc1ccc2c(=O)c3cc(C(=O)O)ccc3oc2c1 [AH 6809]

rank order of potency for competition for [3H]PGE2 specific binding (EP1 receptor [1]): PGE2>PGE1>PGF2α>>PGD2
SMILES: CCCCC[C@H](O)/C=C/[C@H]1[C@H](O)CC(=O)[C@@H]1CCCCCCC(=O)O [PGE1]

binding affinity (thromboxane receptor): high affinity binding
maximal binding (thromboxane receptor): 2-3 pmol/mg protein
SMILES: O=C(O)CCC/C=C\C[C@@H]1[C@H](CNNC(=O)Nc2ccccc2)[C@H]2CC[C@@H]1O2 [SQ-29548]
